Key:
K562 = assay: MTS antiproliferative assay K562; assay type: cell-based, human; details: for IC50: 72 h of incubation
From the text: (§1) The cell lines used were acquired from the American Type Culture Collection (ATCC), CCRF-CEM (T lymphoblastic leukemia), K562 ([…]), U2OS (osteosarcoma), HCT116 (colon carcinoma), A549 (lung adenocarcinoma) and HCT116p53−/− (HCT116 cell line mutated in p53) Horizon Discovery Ltd., (Waterbeach, Cambridge, United Kingdom).
(§2) In our laboratory, IMTM, we generated the daunorubicin-resistant subline of CCRF-CEM cells (CEM-DNR bulk) and paclitaxel-resistant subline K562-TAX, as described previously. […] Both ABC transporters are involved in drug resistance. As a control, human fibroblasts MRC-5 and BJ cell lines were used. […] Adherent cells were passaged using PBS containing 0.25% trypsin plus 0.01% EDTA (ethylenediamine tetraacetic acid) every 2–3 days.
(§3) The antiproliferative activity of compounds was determined using a standard 3-(4,5-dimethylthiazol-2yl)-5-(3-carboxymethoxyphenyl)-2-(4-sulfophenyl)-2H-tetrazolium (MTS) reduction assay on a robotic high throughput screening platform (HighResBio, Boston, MA, USA) following treatment of cells for 3–7 days. The IC50 values were calculated from the appropriate dose–response curves with Dotmatics software (San Diego, CA, USA).

HCT-116 = assay: MTS antiproliferative assay HCT116; assay type: cell-based; details: Homo sapiens, 72 h of incubation
From the text: as §1, §2, §3

HCT116p53−/− = assay: MTS antiproliferative assay HCT116p53-/-; assay type: cell-based; details: Homo sapiens; 72 h of incubation
From the text: as §1, §2, §3

[1] = test system: epimastigotes of Trypanosoma cruzi strain MHOM/VE/92/YBM; assay: MTT viability of T. cruzi epimastigotes; assay type: cell-based
BJ = assay: MTS assay on non-malignant BJ; assay type: cell-based; details: noncancerous human cell line
Protocol: as §2, §3

CCRF-CEM = assay: MTS antiproliferative assay CCRF-CEM; assay type: cell-based; details: Homo sapiens, 72 h of incubation
From the text: as §1, §2, §3

[2] = test system: promastigotes of Leishmania (V.) braziliensis strain MHOM/CO/87/UA301; assay: MTT viability of L. braziliensis promastigotes; assay type: cell-based
Protocol: Promastigotes of Leishmania (V.) braziliensis strain MHOM/CO/87/UA301 were isolated from footpad lesions in Balb/C mice previously infected. In the process of maintenance and differentiation of the parasites, the LTI medium (tryptose 15 g/L, yeast extract 5 g/L, liver extract 2 g/L, hemin-NaOH 0.02 g/L, glucose 4 g/L, NaCl 9 g/L, KCl 0.4 g/L Na2HPO4, 7.5 g/L at pH 7.4) supplemented with 10% fetal calf serum and maintained at 29 °C was used.
Briefly, 96-well plates were used, where 2 × 10^6 parasites/mL were seeded. A concentration of 50 μM was used for each compound and an incubation time of 96 h at 29 °C. 3-(4,5-dimethylthiazol-2-yl)-2,5-diphenyl tetrazolium bromide (MTT) 1 μg/mL was added and incubated in darkness for 4 h, acidic isopropanol (4N) was added and the plate was read at 570 nm in a spectrophotometer Synergy HT (Biotek). Miltefosine was used as a reference drug. The EC50 calculation of the selected compound was performed using growth curves. Direct counting was used to monitor the proliferation of parasites, three independent experiments were performed for each concentration of the compounds evaluated. The in vitro evaluations of compounds toxicity by MTT in VERO and BMDM cells follow a methodology described above with some modifications [60].

VERO cells = assay: MTT cytotoxicity on VERO cells; assay type: cell-based, African green monkey; details: Chlorocebus sabaeus, 72 h
Protocol: Vero cells were derived from the kidney of an African green monkey, cells were maintained in Dulbecco’s Modified Eagle’s Medium (DMEM), supplemented with 10% heat-inactivated FBS and penicillin-streptomycin solution 1% at 37 °C, 5% CO2 atmosphere and > 95% humidity. We evaluated through a colorimetric method the effect of compounds 8–23 on the promastigotes of L. brasiliensis. Briefly, 96-well plates were used, where 2 × 10^6 parasites/mL were seeded. A concentration of 50 μM was used for each compound and an incubation time of 96 h at 29 °C. 3-(4,5-dimethylthiazol-2-yl)-2,5-diphenyl tetrazolium bromide (MTT) 1 μg/mL was added and incubated in darkness for 4 h, acidic isopropanol (4N) was added and the plate was read at 570 nm in a spectrophotometer Synergy HT (Biotek). Miltefosine was used as a reference drug. The EC50 calculation of the selected compound was performed using growth curves. Direct counting was used to monitor the proliferation of parasites, three independent experiments were performed for each concentration of the compounds evaluated. The in vitro evaluations of compounds toxicity by MTT in VERO and BMDM cells follow a methodology described above with some modifications. The selectivity index was calculated with SI = CC50/EC50, where CC50 was the maximum concentration range of compounds 10, 21–23 used to evaluate cytotoxicity in VERO and BMDM cells. The trypanocidal activity of compounds 8–23 was evaluated on the viability of T. cruzi epimastigotes through a colorimetric method adapted with minor modifications. 2 × 10^6 parasites/mL were seeded in a 96-well plate, adding 50 μM of each derivative dissolved in DMSO (final concentration remained below 1%). The plate was incubated for 96 h at 29 °C. Then, 1 μg/mL of 3-(4,5-dimethylthiazol-2-yl)-2,5-diphenyl tetrazolium bromide (MTT) was added and incubated in darkness for 4 h. After this time, acidic isopropanol (4N) was added and the plate was read at 570 nm in a spectrophotometer Synergy HT (Biotek). Benznidazole was used as a reference drug. The in vitro evaluations of compounds toxicity by MTT in VERO and BMDM cells follow a methodology described above with some modifications. Cells were counted in suspension and seeded at 20 × 10^3 cells/well. The test was carried out in triplicate on 96-well microplates in different concentrations: 50 μM, 100 μM, 200 μM and 300 μM, untreated cells and reference drug (benznidazole) controls.

A549 cell line = assay: Annexin V-FITC/PI flow cytometry apoptosis assay A549; assay type: cell-based, human; details: 24 h
Protocol: Cell death was assessed after 24 h incubation with compounds 18 and 22. Apoptosis was analyzed by flow cytometry using annexin V-FITC and propidium iodide (PI). Early apoptosis was defined by annexin V-FITC expression and, necrosis by PI expression, late apoptosis by coexpression of annexin V/PI. Doxorubicin and quercetin were used as positive controls. The results of a typical flow cytometry analysis of both compounds are illustrated in Figure 2 and Figure 3. An increase in early apoptosis and late apoptosis was observed; necrosis was less predominant. The results are summarized in Tables S1 and S2 (Supplementary Materials). The expression of annexin V was different depending on the compound used. K562, A549 cell lines were treated as described by the manufacturer (Santa Cruz Biotechnology), washed, and resuspended in annexin V binding buffer (0.01 M HEPES, 0.14 M NaCl, and 2.5 mM CaCl2) with the subsequent incubation of annexinV-FITC and then PI. An Epics XL cytometer (Beckman Coulter, Indianapolis, IN, USA) was used for the analysis. Untreated cells were the negative controls, and doxorubicin (Dox) (1 μM), and quercetin (QC) (50 μM) were the positive controls. Early apoptosis refers to annexin V expression, late apoptosis, the coexpression of annexin V and PI, and necrosis the sole expression of PI. […] The experiments were performed as described before. To avoid the unwanted effects of DMSO, the concentrations of the compounds were never higher than 100 μM.

COc1ccc2c(c1)CC/C(=C\c1cccnc1Oc1ccc(Cl)cc1)C2=O [Compound 22, (E)-2-{[2-(4-Chlorophenoxy)pyridin-3-yl]methylene}-3,4-dihydro-6-methoxynaphthalen-1(2H)-one]
IC50 (K562): 3.91 ± 0.14 µM
IC50 (K562; Homo sapiens, K562, 72 h): 3.91 to 4.33 µM
times higher cytotoxicity against K562 than K562-TAX (K562; ratio of IC50 values): 5.5 times
IC50 (HCT-116): 13 ± 3.61 µM
IC50 (HCT116p53−/−): 33.9 ± 5.63 µM
SIV/Tc selectivity index on T. cruzi/VERO ([1]; SI = CC50/EC50): 20
selectivity index T. cruzi vs BMDM (CC50/EC50) ([1]; SI = CC50/EC50): 93
EC50 ([1]; Trypanosoma cruzi, 72 h, epimastigotes): 5.03 ± 0.49 µM
IC50 (BJ): > 50 µM
IC50 (CCRF-CEM): 5.23 ± 0.3 µM
EC50 ([2]; 72 h, promastigotes): 12.4 ± 1.15 µM
SIB/Lb selectivity index on L. braziliensis/BMDM ([2]; SI = CC50/EC50): 38
EC50 (VERO cells): > 100 µM
AV+/IP+ (late apoptosis) (A549 cell line; A549, 10 µM): 23.30%
AV+/IP- (early apoptosis) (A549 cell line; A549, 10 µM): 13.80%
AV-/IP+ (necrosis) (A549 cell line; A549, 10 µM): 8.44%
AV+/IP+ (late apoptosis) (A549 cell line; A549, 25 µM): 78.30%
AV+/IP- (early apoptosis) (A549 cell line; A549, 25 µM): 9.36%
AV-/IP+ (necrosis) (A549 cell line; A549, 25 µM): 9.32%

Source: PMC9457600, “Synthesis, Leishmanicidal, Trypanocidal, Antiproliferative Assay and Apoptotic Induction of (2-Phenoxypyridin-3-yl)naphthalene-1(2H)-one Derivatives” (Molecules, 2022)
